This is an account of results in PMC7828111, “In Search for Multi-Target Ligands as Potential Agents for Diabetes Mellitus and Its Complications—A Structure-Activity Relationship Study on Inhibitors of Aldose Reductase and Protein Tyrosine Phosphatase 1B” (Molecules, 2021).

Data set [1] deals with T1, human recombinant PTP1B (Homo sapiens, UniProt P18031).
T1 sequence (P18031 1-435): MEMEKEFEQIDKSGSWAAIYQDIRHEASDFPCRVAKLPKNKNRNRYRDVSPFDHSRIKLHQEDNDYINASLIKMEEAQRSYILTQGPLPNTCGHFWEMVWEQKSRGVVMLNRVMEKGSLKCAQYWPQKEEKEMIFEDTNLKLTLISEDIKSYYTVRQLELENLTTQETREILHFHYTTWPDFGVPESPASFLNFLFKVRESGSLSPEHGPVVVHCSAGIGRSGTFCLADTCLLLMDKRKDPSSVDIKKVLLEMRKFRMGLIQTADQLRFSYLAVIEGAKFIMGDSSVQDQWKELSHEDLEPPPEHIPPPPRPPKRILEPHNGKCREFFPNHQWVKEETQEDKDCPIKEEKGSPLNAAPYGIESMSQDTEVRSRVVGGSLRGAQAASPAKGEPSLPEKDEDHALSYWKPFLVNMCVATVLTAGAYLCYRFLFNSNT
Briefly: Inhibition of human recombinant PTP1B, p-nitrophenyl phosphate as substrate. It counts as biochemical. The settings on record: human recombinant PTP1B, pNPP as substrate; mean ± S.E.M. The protocol:
PTP1B activity was determined as follow. […] After an appropriate interval time, the reaction was stopped diluting assay solution with 2 mL of KOH 0.1 M. The amount of p-nitrophenol released was determined measuring the absorbance of the solution at 400 nm using a spectrophotometer and a 1-cm optical pathlength (εmM of p-nitrophenol is 18). The IC50 value was determined measuring the pNPP hydrolysis rate in the presence of increasing inhibitor concentration. For each inhibitor, 15–16 different concentrations were used. All tests were carried out in triplicate and data obtained were normalized respect to control sample.

Data set [2] deals with T2, human recombinant AR (Homo sapiens, UniProt P15121).
T2 construct: made in house; host or cells: E. coli BL21(DE3)pLysS
Description: Kinetic analysis of AR inhibition (Lineweaver-Burk and secondary plots). It counts as biochemical. The method, then: The kinetic analysis of compounds 4a, 4e and 4f was performed by measuring reaction rates with different L-idose concentrations s (S) in the absence and in the presence of different inhibitors concentrations. Data were analyzed by Linewever-Burk plots.

Data set [3] deals with T1, human recombinant PTP1B. Briefly: Reversibility assay (dilution test) with PTP1B. The class given is biochemical. As to conditions: saturating inhibitor, 60 min 37 °C, diluted 400 folds. The protocol: An aliquot of the enzyme was incubated for 60 min at 37 °C in the presence of saturating amount of PTP1B inhibitor. After this time, an aliquot of the enzyme was withdrawn and diluted 400 folds in the assay buffer containing 2.5 mM of pNPP. After 15 min, the reaction was stopped by adding 1 mL of KOH 0.2 M. The amount of pNP released was calculating measuring the absorbance at 400 nm of solutions using a spectrophotometer. Data obtained were normalized respect to control tests, which was carried out diluting the enzyme with DMSO, the solvent used to dissolve all compounds. Data reported in the figure represent the mean value +/− S.E.M. (n = 3).

Data set [4] concerns HepG2 cells. Description: Cell viability, MTT assay, HepG2. The settings on record: HepG2, 48 h, up to 50 μM. The class given is cell-based, human. The protocol:
Human liver cells (HepG2) and murine myoblasts (C2C12) were purchased by Sigma-Aldrich, which obtained them from the European Collection of Authenticated Cell Cultures (ECACC). HepG2 and C2C12 cells were grown in Dulbecco’s Modified Eagle’s medium (DMEM) supplemented with 10% foetal bovine serum (FBS), 2 mM glutamine, 100 IU/mL penicillin, 100 μg/mL streptomycin (Sigma-Aldrich, St. Louis, MO, USA), in a humidified atmosphere and with 5% CO2 at 37 °C. Differentiation of C2C12 was induced incubating murine myoblasts in DMEM supplemented with 2% horse serum. C2C12 cells were plated and grown until they reach 70% confluence. Then, cells were incubated in the presence of 2% horse serum for 96 h. Every 48 h, the medium was replaced with fresh medium. After 96 h, the degree of differentiation was evaluated analysing cells with a contrast phase microscope.
HepG2 and C2C12 cells were incubated in the presence of increasing concentrations of compounds 4e and 4f for 48 h at 37 °C. After this time, cells were washed with PBS and then incubated for 1 h with 0.5 mg/mL of MTT dissolved in complete medium. Then cells were washed and lysed with 300 μL of DMSO. The absorbance of solutions were evaluated using a microplate readers at 595 nm. All data were normalized respect to control experiment.
On the technique in general: Formazan colour is commonly taken as a measure of viable cells.

The subject of data set [5] is insulin receptor (IRβ) phosphorylation in HepG2 cells. Description: Insulin receptor phosphorylation in HepG2 cells (western blot). It counts as cell-based, human. The protocol:
The insulin mimetic/sensitizing activity of compound 4f was evaluated on both HepG2 and C2C12 cells. Starved HepG2 and C2C12 cells were incubated in the presence of compound 4f (25 μM) for 90 min and after stimulated or not with insulin (10 nM). Then, cells extracts were analysed to evaluate phosphorylation levels of the insulin receptor.
HepG2 and differentiated C2C12 cells were starved for 24 h and then incubated in the presence of compound 4f (25 μM, final concentration) for 90 min. After this time, cells were washed with PBS and then stimulated or not with 10 nM insulin for 30 min. Then, cells were lysed and cellular proteins separated on a 12% SDS-PAGE. After electrophoresis, cellular proteins were transferred on a PVDF membrane by western blot technique and then probed against antibodies able to specifically recognize insulin receptor (I2033 Sigma Aldrich) or phosphorylated form of IR (MABS65, Sigma-Aldrich). Sample loading was evaluated probing PVDF membrane with anti-actin antibodies (ABT1485 Sigma Aldrich).

Regarding `O=C(O)CCN1C(=O)/C(=C/c2ccc(OCCc3ccccc3)cc2)SC1=S` [4f, 3-[(5Z)-4-Oxo-{5-[4-(2-phenylethoxy)phenyl]methylidene}-2-thioxothiazolidin-3-yl]propanoic acid], in data set [1], the IC50 stood at 12.7 ± 0.3 µM. Also, in data set [2] (Ki higher than K′i), the “AR Ki relative to K′i” value is on record as “at least ten-fold higher”. In addition, in data set [2] (L-idose as substrate), the “AR K′i (apparent dissociation constant, EIS complex)” value stood at 2.9 ± 0.12 µM and the “Mechanism of AR inhibition” value was “uncompetitive inhibitors”. Also, the Ki in data set [2] (L-idose as substrate, read-out: AR Ki (apparent dissociation constant)) is above 30 µM. In addition, the “Reversibility of PTP1B inhibition” value in data set [3] is recorded as “reversible inhibitors”. The “Cytotoxicity (cell viability, MTT)” value in data set [4] is “well tolerated”. Besides, the “Increase of IRβ phosphorylation level after stimulation with insulin” value in data set [5] (HepG2, 25 μM for 90 min, then 10 nM insulin 30 min, control cells 39%) amounted to 260%. Moreover, the “Effect on basal phosphorylation levels of IRβ” value in data set [5] (HepG2, 25 μM, 90 min, no insulin) is “marked reduction”.

As usually defined, the IC50 is the concentration needed to halve the response being measured.
